Measured values reported in paper PMC6273267 (Molecules, 2016).
Where two headings read alike, the source gives them in different places.

Experiments:
[1] = molecular target: T1, AChE (E.C. 3.1.1.7) (Electrophorus electricus, UniProt O42275); assay: biochemical; conditions: for Selectivity Index: Selectivity Index = IC50 (BuChE)/IC50 (AChE); for IC50: means ± SEM of three experiments, pH 8.0, 37 °C, 15 min incubation, read-out: AChE Inhibition (IC50)
T1 construct: purchased Sigma-Aldrich (St. Louis, MO, USA)
T1 sequence (O42275 24-633): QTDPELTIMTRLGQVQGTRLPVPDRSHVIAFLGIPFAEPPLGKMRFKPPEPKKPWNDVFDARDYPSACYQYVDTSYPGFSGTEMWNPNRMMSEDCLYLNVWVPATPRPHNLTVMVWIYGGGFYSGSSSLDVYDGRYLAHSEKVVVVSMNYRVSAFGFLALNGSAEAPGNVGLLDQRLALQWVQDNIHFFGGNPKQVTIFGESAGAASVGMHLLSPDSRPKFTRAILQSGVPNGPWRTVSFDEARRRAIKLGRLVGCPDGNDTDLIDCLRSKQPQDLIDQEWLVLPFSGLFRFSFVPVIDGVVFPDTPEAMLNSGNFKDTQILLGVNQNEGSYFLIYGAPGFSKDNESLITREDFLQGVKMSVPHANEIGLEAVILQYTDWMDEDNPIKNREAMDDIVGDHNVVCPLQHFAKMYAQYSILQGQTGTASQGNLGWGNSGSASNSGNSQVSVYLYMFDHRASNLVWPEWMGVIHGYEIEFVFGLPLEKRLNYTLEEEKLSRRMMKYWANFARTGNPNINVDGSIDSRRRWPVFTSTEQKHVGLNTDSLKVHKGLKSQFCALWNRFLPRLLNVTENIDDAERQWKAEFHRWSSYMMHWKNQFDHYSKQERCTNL
Procedure: (§1) The inhibitory activity of the synthesized graveoline analogs on cholinesterase in vitro was studied using the Ellman method.
(§2) Stock solutions of all graveoline analogs (10 mM) were prepared using DMSO and stored at −80 °C. Further dilutions to working concentrations were made with double-distilled deionized water. AChE (E.C. 3.1.1.7, obtained from electric eel), BuChE (E.C. 3.1.1.8, obtained from equine serum), 5,5′-dithiobis-(2-nitrobenzoic acid) (Ellman’s reagent, DTNB), acetylthiocholine chloride (ATC), butylthiocholine chloride, thioflavin T, and tarcine hydrochloride were purchased from Sigma-Aldrich (St. Louis, MO, USA). Aβ42 was purchased from Millipore (Billerica, MA, USA). 3-(4,5-Dimethylthiazol-2-yl)-2,5-diphenyltetrazolium bromide (MTT) was purchased formal Aladdin (Shanghai, China). The SH-SY5Y cell line was obtained from the Animal experimental center of Sun Yat-sen University.
(§3) The solutions of the enzyme were prepared to achieve 2.0 units/mL in 2 mL aliquots. The experiment system contained phosphate buffer, pH 8.0 (1 mL), 50 μL of 0.01 M substrate (ATC), 50 μL of 0.01 M DTNB, and 10 μL of enzyme. The substrate was added into the experiment system containing the DTNB, buffer, and enzyme with inhibitors after 15 min of incubation. […] Calculations were conducted according to the assay of Ellman et al.. The in vitro BuChE assay was performed using the method described above.

[2] = molecular target: T2, BuChE (E.C. 3.1.1.8) (Equus caballus, UniProt P81908); assay: biochemical; conditions: means ± SEM of three experiments; pH 8.0, 37 °C, 15 min incubation; read-out: BuChE Inhibition (IC50)
T2 construct: purchased Sigma-Aldrich (St. Louis, MO, USA); host or cells: equine serum
T2 sequence (P81908 whole entry): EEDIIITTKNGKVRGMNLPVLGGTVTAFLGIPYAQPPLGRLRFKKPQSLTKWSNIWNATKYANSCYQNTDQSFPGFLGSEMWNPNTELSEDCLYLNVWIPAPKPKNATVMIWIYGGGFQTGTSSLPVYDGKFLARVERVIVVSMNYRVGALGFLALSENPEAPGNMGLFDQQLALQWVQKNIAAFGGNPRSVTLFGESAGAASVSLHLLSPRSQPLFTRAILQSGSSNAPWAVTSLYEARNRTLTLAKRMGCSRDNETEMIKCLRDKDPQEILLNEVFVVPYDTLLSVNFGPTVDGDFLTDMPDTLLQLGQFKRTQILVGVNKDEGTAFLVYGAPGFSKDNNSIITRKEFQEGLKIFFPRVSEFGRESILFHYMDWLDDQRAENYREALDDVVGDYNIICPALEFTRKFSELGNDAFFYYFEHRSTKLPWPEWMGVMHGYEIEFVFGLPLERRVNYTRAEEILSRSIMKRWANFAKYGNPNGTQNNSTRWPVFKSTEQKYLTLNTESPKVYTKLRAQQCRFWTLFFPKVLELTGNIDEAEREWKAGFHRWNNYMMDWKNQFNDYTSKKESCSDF
Procedure: as §1, §2, §3

[3] = molecular target: T3, AChE (Electrophorus electricus, UniProt O42275); assay: Kinetic characterization of AChE inhibition (Lineweaver-Burk plot); format: biochemical, electric eel; conditions: lines intersect in the second quadrant
T3 construct: purchased Sigma-Aldrich (St. Louis, MO, USA)
T3 sequence (O42275 24-633): as the sequence (O42275 24-633) above
Procedure: When the small-molecule ligand was combined with the AChE active center (CAS), the type of inhibition of the enzyme was classified as competitive inhibition; by contrast, when the small-molecule ligand was acted on the PAS, the enzymatic inhibition was classified as non-competitive inhibition. […] This conclusion was verified by subsequent molecular docking experiments.
Figure 2 Lineweaver-Burk plot for the inhibition of AChE by 5c.
The kinetic characterization of AChE was performed using the reported method. Three concentrations ([…]) of the substrate were mixed in 1 mL 0.1 M KH2PO4/K2HPO4 buffer (pH 8.0) containing 10 μL AChE, 50 μL DTNB, and 50 μL substrate. The test compound was added into the assay solution and was pre-incubated with the AChE at 37 °C for 15 min followed by addition of the substrate. The kinetic characterization of the AChE-catalyzed ATC hydrolysis was performed spectrometrically at 412 nm. A parallel control with no inhibitor in the mixture allowed adjusting activities to be measured at various times.

[4] = system: AChE-induced Aβ42 aggregation; assay: Thioflavin T-based fluorometric assay of AChE-induced Aβ42 aggregation; format: biochemical; conditions: 5, 10, 20, 40 and 80 μM; 48 h at 37 °C; effect related to compound concentration
Procedure: To explore the combining effect of graveoline analogs on the AChE functional site PAS, compound 5c was chosen to study the inhibitory activity of AChE-induced Aβ aggregation using thioflavin T-based fluorometric assay. […] The inhibitory effect of 5c was related to the compound concentration. […]
Figure 4 Determination of 5c inhibition potency on AChE-induced amyloid-β (Aβ)42 aggregation.
The self-mediated Aβ42 aggregation was evaluated through the thioflavin-T fluorescence assay. A mixture of 230 μM Aβ42 peptide, 2.30 μM AChE (Aβ42/AChE molar ratio 100:1), and the indicated concentrations of compound 5c (5, 10, 20 ,40 and 80 μM) were added to the phosphate buffer (pH 7.40, 0.01 M). After co-incubated in 37 °C for 48 h, thioflavin-T (5 μM in 50 mM glycine-NaOH buffer, pH 8.00) was added. Fluorescence was monitored with excitation at 450 nm (λex) and 485 nm (λem) by the Spectrofluorimeter LS55. The fluorescence intensity values reached at the plateau (around 300 s) were recorded after subtracting the background fluorescence. The solutions containing Aβ42, and Aβ42 plus HuAChE was checked as control. Each experiment was run in triplicate.

[5] = molecular target: T1, AChE (E.C. 3.1.1.7); assay: biochemical; conditions: stated in the introduction, early efforts
[6] = system: SH-SY5Y cells; assay: Neurocyte toxicity test in vitro (MTT method); format: cell-based; conditions: 40 μM, 48 h
Procedure: Thus, we used the methyl thiazolyl tetrazolium (MTT) method to perform a neurocyte (SH-SY5Y) toxicity test in vitro. […] However, cell viability was greatly influenced at 20 and 40 μM concentrations and the inhibition rates were more than 90%. […] However, compared with the cholinesterase activity at the nanomole level, this level of cytotoxicity is acceptable. […]
Figure 5 Inhibition for SH-SY5Y of compounds 4a–4c, 5a–5c, 6a–6b and curcumin at different concentrations.
The SH-SY5Y cell line was seeded on 96-well plates at a density of 1.0 × 10^4 cells/well. After overnight incubation, the cells were treated with various concentrations (0.1, 1, 20, and 40 μM) of graveoline derivatives for 48 h. Subsequently, 10 μL of 5 mg/mL MTT solution was added to each well and further incubated for 4 h at 37 °C. The solution was carefully removed, and each well was treated with dimethyl sulfoxide (DMSO) (200 μL for each well). The optical density of the wells was then read on the microplate reader at 490 nm. The parallel tests of all drug doses were performed in triplicate.

Structure (SMILES)	Selectivity Index [1]	IC50 [1]	IC50 [2]	type of inhibition of AChE [3]	inhibition of AChE-induced Aβ42 aggregation [4]	IC50 [5]	neurocyte inhibition rate [6]
CN(C)CCCNCc1ccc(-c2cc(=O)c3ccccc3n2C)cc1 [Compound 5a, 2-(4-((3-(Dimethylamino)propylamino)methyl)phenyl)-1-methylquinolin-4(1H)-one]	80	33.4 ± 0.78 nM	2680 ± 32 nM	–	–	–	–
CN(C)CCNCc1ccc(-c2cc(=O)c3ccccc3n2C)cc1 [Compound 4a, 2-(4-((2-(Dimethylamino)ethylamino)methyl)phenyl)-1-methylquinolin-4(1H)-one]	45	78.5 ± 1.76 nM	3520 ± 46 nM	–	–	–	–
Cn1c(-c2ccc(CNCCCCN3CCCC3)cc2)cc(=O)c2ccccc21 [Compound 6b, 1-Methyl-2-(4-((4-(pyrrolidin-1-yl)butylamino)methyl)phenyl)quinolin-4(1H)-one]	193	12.6 ± 0.57 nM	2430 ± 49 nM	–	–	–	–
Cn1c(-c2ccc(CNCCCN3CCCC3)cc2)cc(=O)c2ccccc21 [Compound 5b, 1-Methyl-2-(4-((3-(pyrrolidin-1-yl)propylamino)methyl)phenyl)quinolin-4(1H)-one]	291	6.47 ± 0.15 nM	1890 ± 54 nM	–	–	–	–
CN(C)CCCCNCc1ccc(-c2cc(=O)c3ccccc3n2C)cc1 [Compound 6a, 2-(4-((4-(Dimethylamino)butylamino)methyl)phenyl)-1-methylquinolin-4(1H)-one]	103	35.5 ± 0.96 nM	3670 ± 39 nM	–	–	–	–
Cn1c(-c2ccc(CNCCN3CCCCC3)cc2)cc(=O)c2ccccc21 [Compound 4c, 1-Methyl-2-(4-((2-(piperidin-1-yl)ethylamino)methyl)phenyl)quinolin-4(1H)-one]	160	9.63 ± 0.76 nM	1540 ± 29 nM	–	–	–	–
Cn1c(-c2ccc(CNCCN3CCCC3)cc2)cc(=O)c2ccccc21 [Compound 4b, 1-Methyl-2-(4-((2-(pyrrolidin-1-yl)ethylamino)methyl)phenyl)quinolin-4(1H)-one]	–	10.2 ± 1.33 nM	2470 ± 85 nM	–	–	–	–
Cn1c(-c2ccc(CNCCCN3CCCCC3)cc2)cc(=O)c2ccccc21 [Compound 5c, 1-Methyl-2-(4-((3-(piperidin-1-yl)propylamino)methyl)phenyl)quinolin-4(1H)-one]	486	2.36 ± 0.24 nM	1150 ± 31 nM	mixed inhibition	significantly inhibit	–	–
Cc1ccc(-c2cc(=O)c3ccccc3n2C)cc1 [Compound 2, 1-Methyl-2-p-tolylquinolin-4(1H)-one]	3	3650 ± 38 nM	9306 ± 76 nM	–	–	3650 nM	–
COc1cc(/C=C/C(=O)CC(=O)/C=C/c2ccc(O)c(OC)c2)ccc1O [curcumin]	–	–	–	–	–	–	57.3%
